Source: patent US8470830B2, “5-(heterocyclyl)alkyl-N-(arylsulfonyl)indole compounds and their use as 5-HT6 ligands” (Suven Life Sciences Limited, priority 2007, dated 2013)
Where a name gives a salt, the structure may show the parent alone. Read-outs that look alike come from different tables or passages of the source.

What was measured:
Human 5-HT6 Receptor = target: T1, Human 5-HT6 Receptor (Homo sapiens, UniProt P50406); assay: Binding assay for human 5-HT6 receptor ([3H]LSD radioligand)
T1 construct: expressed in transfected cells; host or cells: HEK293
T1 sequence (P50406 whole entry): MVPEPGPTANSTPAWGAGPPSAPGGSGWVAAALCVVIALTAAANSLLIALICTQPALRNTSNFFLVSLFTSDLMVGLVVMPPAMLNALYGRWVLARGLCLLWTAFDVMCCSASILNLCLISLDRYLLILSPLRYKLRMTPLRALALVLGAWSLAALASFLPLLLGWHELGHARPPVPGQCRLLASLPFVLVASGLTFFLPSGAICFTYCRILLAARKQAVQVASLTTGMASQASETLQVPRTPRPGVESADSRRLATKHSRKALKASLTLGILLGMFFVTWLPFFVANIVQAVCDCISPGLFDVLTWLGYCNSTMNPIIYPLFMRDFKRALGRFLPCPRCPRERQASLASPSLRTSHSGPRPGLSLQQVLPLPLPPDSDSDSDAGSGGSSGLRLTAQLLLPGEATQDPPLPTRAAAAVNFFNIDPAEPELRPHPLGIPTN
Description: Compounds can be tested according to the following the procedures.
Receptor source: Human recombinant expressed in HEK293 cells
Radioligand [^3H]LSD (60-80 Ci/mmol)
Non-specific determinant: Methiothepin mesylate—[0.1 μM]
Reference compound: Methiothepin mesylate
Positive control: Methiothepin mesylate
Reactions were carried out in […] TRIS-HCl (pH 7.4) containing 10 μM MgCl2, 0.5 mM EDTA for 60 minutes at 37° C. The reaction was terminated by rapid vacuum filtration onto glass fiber filters. Radioactivity trapped onto the filters was determined and compared to control values in order to ascertain any interactions of test compound(s) with the cloned serotonin 5-HT6 binding site.
Literature Reference: Monsma F. J. Jr., et al., Molecular Cloning and Expression of Novel Serotonin Receptor with High Affinity for Tricyclic Psychotropic Drugs.

5-HT6 receptor = conditions: literature; cited from earlier work
[1] = system: animal models for schizophrenia; conditions: literature (Pouzet et al. 2002); cited from earlier work
[2] = human recombinant receptor in HEK293 cells, [3H]LSD 1.5 nM, 60 minutes at 37° C., read-out: Radio-ligand binding data at 5-HT6 (h) Ki

Row | SMILES | melting point | Ki (Human 5-HT6 Receptor; [2]) | also measured
1 | CN1CCN(Cc2ccc3c(c2)c(Cl)cn3S(=O)(=O)c2ccc(Cl)cc2)CC1 [Compound 24, 1-(4-Chlorobenzenesulfonyl)-3-chloro-5-(4-methylpiperazin-1-ylmethyl)-1H-indole] | 139.2 to 140.4 °C |  | 
2 | Cl.Cl.O=S(=O)(c1ccc(F)cc1F)n1cc(Cl)c2cc(CN3CCNCC3)ccc21 [Compound 32, 1-(2,4-Difluorobenzenesulfonyl)-3-chloro-5-(piperazin-1-ylmethyl)-1H-indole dihydrochloride] | 241.5 to 246.1 °C |  | Ki (Human 5-HT6 Receptor): 5.77 nM
3 | CC(C)c1ccc(S(=O)(=O)n2ccc3cc(CN4CCN(C)CC4)ccc32)cc1 [Compound 5, 1-[4-(1-Methylethyl)benzenesulfonyl]-5-(4-methylpiperazin-1-ylmethyl)-1H-indole] |  | 17.9 nM | 
4 | CN1CCN2c3ccccc3Cc3ccccc3C2C1 (stereo not drawn) [mianserin] |  |  | affinity for the 5-HT6 receptor (5-HT6 receptor): high affinity
5 | CN1CCN(Cc2ccc3c(ccn3S(=O)(=O)c3ccc(Cl)cc3)c2)CC1 [Compound 22, 1-(4-Chlorobenzenesulfonyl)-5-(4-methylpiperazin-1-ylmethyl)-1H-indole] |  | 3.02 nM | 
6 | CN1CCN(Cc2ccc3c(ccn3S(=O)(=O)c3cc(C(F)(F)F)ccc3Cl)c2)CC1 [Compound 19, 1-(2-Chloro-5-trifluoromethylbenzenesulfonyl)-5-(4-methylpiperazin-1-ylmethyl)-1H-indole] |  | 11.3 nM | 
7 | CCN1CCN(Cc2ccc3c(ccn3S(=O)(=O)c3ccc(F)cc3)c2)CC1.Cl.Cl [Compound 7, 1-(4-Fluorobenzenesulfonyl)-5-(4-ethylpiperazin-1-ylmethyl)-1H-indole dihydrochloride] | 265 to 270 °C | 3.21 nM | 
8 | CCN1CCN(Cc2ccc3c(ccn3S(=O)(=O)c3ccc(Br)cc3)c2)CC1.Cl.Cl | 264.5 to 267 °C |  | 
9 | CN1CCN(Cc2ccc3c(ccn3S(=O)(=O)c3ccccc3Br)c2)CC1 [Compound 20, 1-(2-Bromobenzenesulfonyl)-5-(4-methylpiperazin-1-ylmethyl)-1H-indole] |  | 8.3 nM | 
10 | Cl.Cl.O=S(=O)(c1ccc(F)cc1)n1cc(Cl)c2cc(CN3CCNCC3)ccc21 [Compound 30, 1-(4-Fluorobenzenesulfonyl)-3-chloro-5-(piperazin-1-ylmethyl)-1H-indole dihydrochloride] | 254 to 259.6 °C | 2.58 nM | 
11 | CCN1CCN(Cc2ccc3c(ccn3S(=O)(=O)c3cccc(Cl)c3Cl)c2)CC1.Cl.Cl [Compound 14, 1-(2,3-Dichlorobenzenesulfonyl)-5-(4-ethylpiperazin-1-ylmethyl)-1H-indole dihydrochloride] | 273.5 to 277 °C | 5.52 nM | 
12 | CN1CCN(Cc2ccc3c(c2)c(Cl)cn3S(=O)(=O)c2ccc(F)cc2)CC1 [Compound 25, 1-(4-Fluorobenzenesulfonyl)-3-chloro-5-(4-methylpiperazin-1-ylmethyl)-1H-indole] | 118.8 to 120.1 °C | 2.97 nM | 
13 | CN1CCN(Cc2ccc3c(c2)c(Cl)cn3S(=O)(=O)c2cc(C(F)(F)F)ccc2Cl)CC1 [Compound 27, 1-(2-Chloro-5-trifluoromethylbenznesulfonyl)-3-chloro-5-(4-methylpiperazin-1-ylmethyl)-1H-indole dihydrochloride] |  | 4.16 nM | 
14 | CN1CCN(Cc2ccc3c(c2)c(Cl)cn3S(=O)(=O)c2cc(C(F)(F)F)ccc2Cl)CC1 (as salt: hydrochloride) [Compound 27, 1-(2-Chloro-5-trifluoromethylbenznesulfonyl)-3-chloro-5-(4-methylpiperazin-1-ylmethyl)-1H-indole dihydrochloride] | 287 to 290 °C |  | 
15 | CN(C)CCC=C1c2ccccc2CCc2ccccc21 [amitriptyline] |  |  | affinity for the 5-HT6 receptor (5-HT6 receptor): high affinity
16 | CN1CCN(Cc2ccc3c(c2)c(Cl)cn3S(=O)(=O)c2ccc(F)cc2F)CC1.Cl.Cl [Compound 26, 1-(2,4-Difluorobenzenesulfonyl)-3-chloro-5-(4-methylpiperazin-1-ylmethyl)-1H-indole dihydrochloride] | 251.85 to 253 °C | 3.36 nM | 

Row | SMILES | melting point | Ki (Human 5-HT6 Receptor; [2]) | also measured
17 | CC(C)Oc1c(CN2CCN(C)CC2)ccc2c1ccn2S(=O)(=O)c1ccc(F)cc1 [Compound 28, 1-(4-Fluorobenznesulfonyl)-4-isopropoxy-5-(4-methylpiperazin-1-ylmethyl)-1H-indole] |  | 276 nM | 
18 | CCN1CCN(Cc2ccc3c(ccn3S(=O)(=O)c3ccc(C)cc3)c2)CC1.Cl.Cl | 263 to 267 °C |  | 
19 | Cl.Cl.O=S(=O)(c1ccccc1Br)n1ccc2cc(CN3CCNCC3)ccc21 [Compound 31, 1-(2-Bromobenzenesulfonyl)-5-(piperazin-1-ylmethyl)-1H-indole dihydrochloride] | 264.2 to 266.9 °C | 7.77 nM | 
20 | CC(C)c1ccc(S(=O)(=O)n2ccc3cc(CN4CCNCC4)ccc32)cc1.Cl.Cl [Compound 34, 1-[4-(1-Methylethyl)benzenesulfonyl]-5-(piperazin-1-ylmethyl)-1H-indole dihydrochloride] | 250 to 254 °C | 14.9 nM | 
21 | CCN1CCN(Cc2ccc3c(ccn3S(=O)(=O)c3cccc(C(F)(F)F)c3)c2)CC1.Cl.Cl | 265 to 270 °C |  | 
22 | CCN1CCN(Cc2ccc3c(ccn3S(=O)(=O)c3ccccc3)c2)CC1.Cl.Cl | 266 to 270.5 °C |  | 
23 | CCN1CCN(Cc2ccc3c(ccn3S(=O)(=O)c3ccccc3Br)c2)CC1.Cl.Cl [Compound 15, 1-(2-Bromobenzenesulfonyl)-5-(4-ethylpiperazin-1-ylmethyl)-1H-indole dihydrochloride] | 255.5 to 259 °C | 2.56 nM | 
24 | CCN1CCN(Cc2ccc3c(ccn3S(=O)(=O)c3ccc(C(C)C)cc3)c2)CC1.Cl.Cl [Compound 8, 1-[4-{1-Methylethyl)benzenesulfonyl]-5-(4-ethylpiperazin-1-ylmethyl)-1H-indole dihydrochloride] | 258 to 261 °C | 5.81 nM | 
25 | CN1CCN(Cc2ccc3c(ccn3S(=O)(=O)c3ccccc3)c2)CC1.Cl.Cl [Compound 1, 1-Benzenesulfonyl-5-(4-methylpiperazin-1-ylmethyl)-1H-indole dihydrochloride] | 266 to 270.5 °C | 3.83 nM | 
26 | CN1CCN(Cc2ccc3c(ccn3S(=O)(=O)c3cccc(Cl)c3Cl)c2)CC1 [Compound 21, 1-(2,3-Dichlorobenzenesulfonyl)-5-(4-methylpiperazin-1-ylmethyl)-1H-indole] |  | 18 nM | 
27 | CCN1CCN(Cc2ccc3c(ccn3S(=O)(=O)c3ccc(Cl)cc3)c2)CC1.Cl.Cl | 265 to 269 °C |  | 
28 | Cl.Cl.O=S(=O)(c1ccccc1)n1ccc2cc(CN3CCNCC3)ccc21 [Compound 33, 1-(Benzenesulfonyl)-5-(piperazin-1-ylmethyl)-1H-indole dihydrochloride] | 250.4 to 256.2 °C | 2.52 nM | 
29 | CN1CCN(Cc2ccc3c(ccn3S(=O)(=O)c3ccc(F)cc3)c2)CC1 [Compound 3, 1-(4-Fluorobenzenesulfonyl)-5-(4-methylpiperazin-1-ylmethyl)-1H-indole] |  | 14.6 nM | 
30 | CCN1CCN(Cc2ccc3c(ccn3S(=O)(=O)c3ccc(OC)cc3)c2)CC1.Cl.Cl | 254 to 258 °C |  | 
31 | COc1ccc(NS(=O)(=O)c2sc3ccc(Cl)cc3c2C)cc1N1CCNCC1 [SB-271046, 5-Chloro-N-(4-methoxy-3-piperazin-1-ylphenyl)-3-methyl-2-benzothiophenesulfonamide] |  |  | activity in animal tests related to positive or negative symptoms of schizophrenia [1]: inactive
32 | CCN1CCN(Cc2ccc3c(ccn3S(=O)(=O)c3ccc(F)cc3F)c2)CC1.Cl.Cl [Compound 10, 1-(2,4-Difluorobenzenesulfonyl)-5-(4-ethylpiperazin-1-ylmethyl)-1H-indole dihydrochloride] | 271 to 274.5 °C | 12.4 nM | 
